From patent US20240041830A1, “CIRCULATING BIOMARKERS OF RESPONSE TO PD-1/PD-L1 BLOCKADE AND GSK-3 INHIBITION” (Brown University, priority 2022, published 2024)

Assays:
HCT-116 = test: Luminex 200 cytokine profiling of cell culture supernatant; type: cell-based, human; details: 1 μM or 5 μM, forty-eight hours
Procedure: (§1) Collection of cell culture supernatants used in cytokine measurements. Cells were plated at 3.5×10^4 cells in a 48-well plate (Thermo Fisher Scientific, Waltham, MA, USA) in complete medium and incubated at 37° C. with 5% CO2. At twenty-four hours after plating, almost all the tumor cells were adherent to the bottom of the flask and the complete medium was replaced with the drug-containing medium. Subsequently, the culture supernatants were collected after forty-eight hours of incubation and were frozen at −80° C. until the measurement of cytokines was performed. On the day of analysis, samples were thawed and centrifuged to remove cellular debris.
(§2) Human cytokine profiling. Human cell line culture supernatants were analyzed using an R&D systems Human Premixed Multi-Analyte Kit (R&D Systems, Inc., Minneapolis, MN, USA) and a Luminex 200 (RRID: SCR_018025) Instrument (LX200-XPON-RUO, Luminex Corporation, Austin, TX, USA) according to the manufacturer's instructions. Sample levels of TNF-α, 4-1BB/TNFRSF9/CD137, IL-8/CXCL8, Ferritin, IFN-β, IL-10, CCL2/JE/MCP-1, VEGF, CXCL13/BLC/BCA-1, IFN-γ, CCL20/MIP-3 α, CCL3/MIP-1 α, CCL22/MDC, CCL4/MIP-1 β, Fas Ligand/TNFSF6, IL-17/1L-17A, IL-2, BAFF/BLyS/TNFSF13B, GM-CSF, CXCLS/ENA-78, TRANCE/TNFSF11/RANK L, CXCL9/MIG, G-CSF, IFN-γ R1/CD119, VEGFR3/Flt-4, C-Reactive Protein/CRP, CXCL11/I-TAC, IL-21, CXCL14/BRAK, IL-6, Fas/TNFRSF6/CD95, TRAIL R3/TNFRSF10C, IL-4, CCL5/RANTES, PD-L1/137-H1, CCL7/MCP-3/MARC, Chitinase 3-like 1, CXCL10/IP-10/CRG-2, IL-1 μ/IL-1F2, IL-7, Prolactin, CCL8/MCP-2, TRAIL R2/TNFRSF10B, M-CSF, IL-15, Granzyme B, IFN-α, TREM-1, IL-12/1L-23 p40, TRAIL/TNFSF10, CCL11/Eotaxin, and 1L-18/1L-1F4. Quantitative analysis with 6 standards and a minimum of 50 counts per bead region was used with the Luminex to generate analyte values reported as picograms/milliliter (pg/mL). Sample concentrations less than the lower limit of detection for each particular analyte were recoded as the lower limit value divided by 10. Sample concentrations above the upper limit of detection for a particular analyte were recoded as the upper limit of detection.
(§3) Huntington, Louie, Zhou, & EI-Deiry, Oncotarget, 12, 1980-1991 (2021). The inventors in this EXAMPLE treated tumor cells (HCT-116, HT-29) with 1 μM or 5 μM elraglusib for forty-eight hours and subsequently analyzed the cell culture supernatant using Luminex 200 technology (FIG. 2H,I).

HT-29 = test: as above; type: cell-based, human; details: 1 μM or 5 μM, forty-eight hours
Procedure: as §1, §2, §3

Compound: Cn1cc(C2=C(c3coc4ccc(F)cc34)C(=O)NC2=O)c2cc3c(cc21)OCO3 [elraglusib]
- GDF-15 secretion (HCT-116): decreased secretion
- GM-CSF secretion (HCT-116): decreased secretion
- VEGF secretion (HCT-116): decreased secretion
- CCL5/RANTES in supernatant (HCT-116; cell line not given): downregulated
- DcR3 in supernatant (HCT-116; cell line not given): downregulated
- Fas in supernatant (HCT-116; cell line not given): downregulated
- soluble PD-L1 (sPD-L1) in supernatant (HCT-116; cell line not given): downregulated
- GDF-15 secretion (HT-29): decreased secretion
- GM-CSF secretion (HT-29): decreased secretion
- VEGF secretion (HT-29): decreased secretion
- CCL5/RANTES in supernatant (HT-29; cell line not given): downregulated
- DcR3 in supernatant (HT-29; cell line not given): downregulated
- Fas in supernatant (HT-29; cell line not given): downregulated
- soluble PD-L1 (sPD-L1) in supernatant (HT-29; cell line not given): downregulated
